Measured values reported in ChEMBL document CHEMBL2021794, “Synthesis, σ₁, σ₂-receptors binding affinity and antiproliferative action of new C1-substituted adamantanes” (Bioorg Med Chem, 2012).

Key:
[1] = biological target: Sigma non-opioid intracellular receptor 1 (Homo sapiens, UniProt Q99720); assay: Displacement of [3H](+)pentazocine from sigma-1 receptor expressed in human Jurkat cell membranes after 2 hrs by liquid scintillation spectroscopy
BXPC-3 = assay: Induction of apoptosis in human BxPC3 cells assessed as early apoptotic cells at 5 uM after 24 hrs by Annexin V/7-AAD staining based flow cytometry (reference value: 11%); type: functional
IGROV-1 = assay: Cell cycle arrest in human IGROV1 cells assessed as accumulation at S phase at 5 uM after 24 hrs by propidium iodide staining based flow cytometry (reference value: 29%); type: functional

Sigma non-opioid intracellular receptor 1, sequence (Q99720 whole entry): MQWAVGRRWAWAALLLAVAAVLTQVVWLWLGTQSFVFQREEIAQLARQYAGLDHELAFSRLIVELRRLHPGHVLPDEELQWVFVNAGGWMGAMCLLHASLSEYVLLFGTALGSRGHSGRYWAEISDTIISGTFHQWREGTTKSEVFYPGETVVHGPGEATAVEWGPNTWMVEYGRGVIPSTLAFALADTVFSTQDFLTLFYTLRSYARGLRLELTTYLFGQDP

With CN1CCN(c2ccc(C(c3ccccc3)C34CC5CC(CC(C5)C3)C4)cc2)CC1 (stereo not drawn) the IC50 [1] was 3.2 nM, the Activity (BXPC-3) was 17% and the Activity (IGROV-1) was 29%.
